Test: Solubility of invention compounds in reactive diluents and oligomers
Type: physicochemical

C=C(C)C(=O)OCCC[Si]12O[Si]3(CCCOC(=O)C(=C)C)O[Si]4(CCCOC(=O)C(=C)C)O[Si](CCCOC(=O)C(=C)C)(O1)O[Si]1(CCCOC(=O)C(=C)C)O[Si](CCCOC(=O)C(=C)C)(O2)O[Si](CCCOC(=O)C(=C)C)(O3)O[Si](CCCOC(=O)C(=C)C)(O4)O1 [I.10]
50 wt %: Solubility in CN501 (in CRAYNOR CN501, amino-modified polether acrylate, * footnote: complete solubility after addition of a very small amount of CH2Cl2) | Solubility in TMPTA (in TMPTA = trihydroxymethylpropane triacrylate, * / # footnotes: dissolved after addition of a very small amount of CH2Cl2) | Solubility in TPGDA (in TPGDA = tri(propyleneglycol) diacrylate, * / # footnotes: dissolved after addition of a very small amount of CH2Cl2)

From US7297460B2, “Radiation curable ink compositions suitable for ink-jet printing” (Agfa-Gevaert, priority 2003, dated 2007)
